Source: ChEMBL document CHEMBL2331400, “Structure-based design and evaluation of naphthalene diimide G-quadruplex ligands as telomere targeting agents in pancreatic cancer cells” (J Med Chem, 2013)
Active and inactive are the calls of the source. The rule behind the calls is not given here.

Tests used:
MIA PaCa-2 [1] = test: Upregulation of DDIT3 gene expression in human MIAPaCa2 cells at cytotoxic concentration after 24 hrs by qPCR analysis; assay type: functional, cell-based
MIA PaCa-2 [2] = test: Downregulation of CDK7 gene expression in human MIAPaCa2 cells at 20 to 160 nM after 24 hrs by qPCR analysis relative to solvent-treated control; assay type: functional, cell-based
unidentified [3] = test: Stabilization of duplex DNA T-loop (unknown origin) 5'-FAM-dTATAGCTATA-HEG-TATAGCTATA-TAMRA-3' assessed as melting temperature at 1 uM by FRET assay
unidentified [4] = test: Stabilization of HSP90a promoter sequence 5'-FAM-d(GGGCCAAAGGGAAGGGGTGGG)-TAMRA-3' (unknown origin) assessed as melting temperature at 1 uM by FRET assay
MIA PaCa-2 [5] = test: Downregulation of PPP1R15A gene expression in human MIAPaCa2 cells at subcytotoxic concentration after 24 hrs by qPCR analysis; assay type: functional, cell-based
MIA PaCa-2 [6] = test: Cytotoxicity against human MIAPaCa2 cells assessed as growth inhibition at 5 to 40 nM up to 96 hrs by microscopic analysis; assay type: functional, cell-based
MIA PaCa-2 [7] = test: Downregulation of CDKN1A gene expression in human MIAPaCa2 cells at subcytotoxic concentration after 24 hrs by qPCR analysis; assay type: functional, cell-based
MIA PaCa-2 [8] = test: Downregulation of GADD45G gene expression in human MIAPaCa2 cells at subcytotoxic concentration after 24 hrs by qPCR analysis; assay type: functional, cell-based
MIA PaCa-2 [9] = test: Upregulation of MYC gene expression in human MIAPaCa2 cells at 20 to 80 nM by qPCR analysis relative to solvent-treated control; assay type: functional
MIA PaCa-2 [10] = test: Downregulation of DDIT3 gene expression in human MIAPaCa2 cells at subcytotoxic concentration after 24 hrs by qPCR analysis; assay type: functional, cell-based
MIA PaCa-2 [11] = test: Cytotoxicity against human MIAPaCa2 cells assessed as growth inhibition after 96 hrs by SRB assay; assay type: functional, cell-based; conditions: MIA PaCa-2, 96 h
MIA PaCa-2 [12] = test: Downregulation of UNG gene expression in human MIAPaCa2 cells at 160 nM after 24 hrs by qPCR analysis; assay type: functional, cell-based
MIA PaCa-2 [13] = test: Downregulation of NBN gene expression in human MIAPaCa2 cells at 20 to 160 nM after 24 hrs by qPCR analysis relative to solvent-treated control; assay type: functional, cell-based
MIA PaCa-2 [14] = test: Inhibition of telomerase activity in human MIAPaCa2 cells assessed as telomere elongation at 5 to 7.5 nM after 7 days by TRAP-LIG assay; assay type: cell-based
MCF7 = test: Cytotoxicity against human MCF7 cells assessed as growth inhibition after 96 hrs by SRB assay; assay type: functional, cell-based; conditions: MCF7, 96 h
MIA PaCa-2 [15] = test: Downregulation of SLX4 gene expression in human MIAPaCa2 cells at 20 to 80 nM after 24 hrs by qPCR analysis relative to solvent-treated control; assay type: functional
MIA PaCa-2 [16] = test: Upregulation of NTHL1 gene expression in human MIAPaCa2 cells at sublethal concentration after 24 hrs by qPCR analysis; assay type: functional, cell-based
unidentified [17] = test: Stabilization of HSP90b promoter sequence 5'-FAM-d(GGGCGGGCCAAAGGGAAGGGG)-TAMRA-3' (unknown origin) assessed as melting temperature at 1 uM by FRET assay
[18] = Cytotoxicity against human RCC4 cells assessed as growth inhibition after 96 hrs by SRB assay; assay type: functional, cell-based; conditions: RCC4, 96 h
MIA PaCa-2 [19] = test: Upregulation of GADD45G gene expression in human MIAPaCa2 cells at cytotoxic concentration after 24 hrs by qPCR analysis; assay type: functional, cell-based
MIA PaCa-2 [20] = test: Induction of ATM/[…] gene expression in human MIAPaCa2 cells by qPCR analysis; assay type: functional, cell-based
MIA PaCa-2 [21] = test: Downregulation of […] gene expression in human MIAPaCa2 cells at 20 to 80 nM after 24 hrs by qPCR analysis relative to solvent-treated control; assay type: functional
MIA PaCa-2 [22] = test: Downregulation of GADD45A gene expression in human MIAPaCa2 cells at subcytotoxic concentration after 24 hrs by qPCR analysis; assay type: functional, cell-based
MIA PaCa-2 [23] = test: Downregulation of PARP1 gene expression in human MIAPaCa2 cells at 20 to 160 nM after 24 hrs by qPCR analysis relative to solvent-treated control; assay type: functional, cell-based
MIA PaCa-2 [24] = test: Downregulation of RAD50 gene expression in human MIAPaCa2 cells at 20 to 160 nM after 24 hrs by qPCR analysis relative to solvent-treated control; assay type: functional, cell-based
786-0 = test: Cytotoxicity against human 786-0 cells assessed as growth inhibition after 96 hrs by SRB assay; assay type: functional, cell-based; conditions: 786-0, 96 h
MIA PaCa-2 [25] = test: Downregulation of PPM1D gene expression in human MIAPaCa2 cells at subcytotoxic concentration after 24 hrs by qPCR analysis; assay type: functional, cell-based
MIA PaCa-2 [26] = test: Downregulation of PTGES3 gene expression in human MIAPaCa2 cells at 20 to 80 nM after 24 hrs by qPCR analysis relative to solvent-treated control; assay type: functional, cell-based
MIA PaCa-2 [27] = test: Downregulation of TP73 gene expression in human MIAPaCa2 cells at 160 nM after 24 hrs by qPCR analysis; assay type: functional, cell-based
MIA PaCa-2 [28] = test: Upregulation of NHP2 gene expression in human MIAPaCa2 cells at 20 to 80 nM after 24 hrs by qPCR analysis relative to solvent-treated control; assay type: functional
MIA PaCa-2 [29] = test: Cytotoxicity against human MIAPaCa2 cells assessed as growth inhibition at 80 nM after 72 hrs by microscopic analysis; assay type: functional, cell-based
MIA PaCa-2 [30] = test: Cytotoxicity against human MIAPaCa2 cells assessed as growth inhibition at 5 to 40 nM after 144 hrs by microscopic analysis; assay type: functional, cell-based
MIA PaCa-2 [31] = test: Upregulation of UNG gene expression in human MIAPaCa2 cells at sublethal concentration after 24 hrs by qPCR analysis; assay type: functional, cell-based
Homo sapiens = organism: Homo sapiens; test: Stabilization of human telomeric G-quadruplex DNA sequence 5'-FAM-d(GGG[TTAGGG]3)-TAMRA-3' assessed as melting temperature at 1 uM by FRET assay
MIA PaCa-2 [32] = test: Cytotoxicity against human MIAPaCa2 cells assessed as growth inhibition at 160 nM after 72 hrs by microscopic analysis; assay type: functional, cell-based
MIA PaCa-2 [33] = test: Upregulation of PRKCB gene expression in human MIAPaCa2 cells at 20 to 80 nM after 24 hrs by qPCR analysis relative to solvent-treated control; assay type: functional
MIA PaCa-2 [34] = test: Upregulation of GADD45A gene expression in human MIAPaCa2 cells at cytotoxic concentration after 24 hrs by qPCR analysis; assay type: functional, cell-based
MIA PaCa-2 [35] = test: Induction of gamma-H2AX gene expression in human MIAPaCa2 cells by qPCR analysis; assay type: functional, cell-based
MIA PaCa-2 [36] = test: Downregulation of BAX gene expression in human MIAPaCa2 cells at 20 to 160 nM after 24 hrs by qPCR analysis relative to solvent-treated control; assay type: functional, cell-based
MIA PaCa-2 [37] = test: Upregulation of PPM1D gene expression in human MIAPaCa2 cells at cytotoxic concentration after 24 hrs by qPCR analysis; assay type: functional, cell-based
MIA PaCa-2 [38] = test: Upregulation of PPP1R15A gene expression in human MIAPaCa2 cells at cytotoxic concentration after 24 hrs by qPCR analysis; assay type: functional, cell-based

For `CN1CCN(CCCNc2cc3c4c(c(NCCCN5CCN(C)CC5)cc5c4c2C(=O)N(CCCN2CCOCC2)C5=O)C(=O)N(CCCN2CCOCC2)C3=O)CC1`, the Activity (MIA PaCa-2 [1]) was “Active”, the Activity (MIA PaCa-2 [2]) was “Active” and the ΔTm (unidentified [3]) was 4.9 °C. The ΔTm (unidentified [4]) was 33.1 °C, the Activity (MIA PaCa-2 [5]) was “inactive” and the “growth inhibition (GI)” value (MIA PaCa-2 [6]) was “Active”. The Activity (MIA PaCa-2 [7]) was “inactive”, the Activity (MIA PaCa-2 [8]) was “inactive” and the “fold change (FC)” value (MIA PaCa-2 [9]) was >2. The Activity (MIA PaCa-2 [10]) was “inactive”, the IC50 (MIA PaCa-2 [11]) was 10 nM and the Activity (MIA PaCa-2 [12]) was “Active”. The Activity (MIA PaCa-2 [13]) was “Active”, the inhibition (MIA PaCa-2 [14]) was “inactive” and the IC50 (MCF7) was 70 nM. The “fold change (FC)” value (MIA PaCa-2 [15]) was >2, the Activity (MIA PaCa-2 [16]) was “inactive” and the ΔTm (unidentified [17]) was 28.6 °C. For the same compound, the IC50 [18] was 560 nM, the Activity (MIA PaCa-2 [19]) was “Active” and the Activity (MIA PaCa-2 [20]) was “inactive”. For the same compound, the “fold change (FC)” value (MIA PaCa-2 [21]) was >2, the Activity (MIA PaCa-2 [22]) was “inactive” and the Activity (MIA PaCa-2 [23]) was “Active”. For the same compound, the Activity (MIA PaCa-2 [24]) was “Active”, the IC50 (786-0) was 320 nM and the Activity (MIA PaCa-2 [25]) was “inactive”. The Activity (MIA PaCa-2 [26]) was “Active”, the Activity (MIA PaCa-2 [27]) was “Active” and the “fold change (FC)” value (MIA PaCa-2 [28]) was >2. The “growth inhibition (GI)” value (MIA PaCa-2 [29]) was “inactive”, the “growth inhibition (GI)” value (MIA PaCa-2 [30]) was “inactive” and the Activity (MIA PaCa-2 [31]) was “inactive”. For the same compound, the ΔTm (Homo sapiens) was 26.6 °C, the “growth inhibition (GI)” value (MIA PaCa-2 [32]) was “Active” and the “fold change (FC)” value (MIA PaCa-2 [33]) was >2. For the same compound, the Activity (MIA PaCa-2 [34]) was “Active”, the Activity (MIA PaCa-2 [35]) was “Active” and the Activity (MIA PaCa-2 [36]) was “Active”. For the same compound, the Activity (MIA PaCa-2 [37]) was “Active” and the Activity (MIA PaCa-2 [38]) was “Active”.
